In article PMC11317440, “Soloxolone para-methylanilide effectively suppresses aggressive phenotype of glioblastoma cells including TGF-β1-induced glial-mesenchymal transition in vitro and inhibits growth of U87 glioblastoma xenografts in mice” (Frontiers in Pharmacology, 2024):

Legend:
TGF-β1-treated U87 cells [1] = assay: Adhesion of U87 cells to culture plastic (TrypLE treatment assay); type: cell-based, human; conditions: TGF-β1 50 ng/mL, non-toxic concentrations, 48 h
Method: Adhesiveness of glioblastoma cells was assessed by two independent methods. First, cell adhesion to culture plastic was tested using a trypsin treatment assay, as previously described ([Sava et al., 2004]; [Mazuryk et al., 2015]; [van Dijk et al., 2017]). Briefly, U87 and U118 cells (10,000 cells per well of a 96-well plate, n = 4) were cultured with TGF-β1 (50 ng/mL) and non-toxic concentrations of soloxolone amides for 48 h and then treated with a 1:20 dilution of TrypLE Express (Gibco, USA) in PBS for 3 min at 37°C. Non-adherent cells were then removed by a triple PBS wash, and the remaining adherent cells were fixed with 4% formaldehyde and stained with crystal violet dye (0.1% w/v). Images were captured using the iBright 1,500 Imaging System (Invitrogen, USA), and the cell-occupied area was calculated using ImageJ. Alternatively, the number of adherent cells was quantified using the MTT assay.

SMAD2/3 = SMAD2/3 nuclear translocation (immunofluorescence), U87 cells; type: cell-based, human; conditions: U87, 7 50 nM pretreatment 48 h, TGF-β1 50 ng/mL 1 h
Method: U87 cells (150,000 cells/well) were allowed to attach to glass coverslips in 24-well plates prior to 48-h incubation with compound 7 (50 nM) under serum-free conditions, followed by stimulation with TGF-β1 (50 ng/mL) for 1 h. After fixation in 4% formaldehyde for 20 min, cells were incubated with primary antibodies against Smad2/3 (1:100, ab202445) for 1 h under permeabilizing conditions (0.1% Triton X100, 5 mg/mL BSA, 37°C) and Alexa Fluor 488-conjugated secondary antibodies (1:500, ab150077) for 1 h in the dark. Finally, nuclei were stained with DAPI (1 μg/mL) for 10 min and cells were mounted on glass slides with Fluoromount-G (Thermo Fisher Scientific, Rockford, IL, USA). Images were captured using a LSM710 confocal microscope (Zeiss, Oberkochen, Germany) at ×40 magnification. Nuclear translocation was quantified by measuring the ratio of nuclear to perinuclear intensity of Alexa Fluor 488 in CellProfiler software (Broad Institute, Cambridge, MA, USA) for 50 cells per experimental group (n = 3).

U118 cells [2] = assay: Annexin V-FITC/propidium iodide flow cytometry, U118, 48 h; type: cell-based, human
Method: To observe apoptosis and necrosis, U87 and U118 cells were stained with Annexin V-FITC and propidium iodide (ab14085; Abcam, Inc., Cambridge, MA, USA) after 48 h of incubation with compound 7 (0–2000 nM) according to the manufacturer’s protocol (n = 3). To quantify the total proportion of apoptotic cells in control and experimental groups, the events accumulated in the lower right quadrant (early apoptosis) and upper right quadrant (late apoptosis) were summarized.
After staining, 10,000 cells per sample were analyzed on a NovoCyte flow cytometer using NovoExpress software (ACEA Biosciences, Inc., USA).

U87 cells = assay: MTT assay 72 h, 7 and TMZ alone and combined, synergy (HSA), U87; type: cell-based, human
Method: (§1) The drug synergy score was calculated for the dose-response matrix according to the highest single-agent (HSA) model using the SynergyFinder + web application (https://www.synergyfinder.org/).

U118 cells [3] = assay: MTT assay 72 h, 7 and TMZ alone and combined, synergy (HSA), U118; type: cell-based, human
Method: as §1

[4] = tested on: TGF-β1-treated U118 cells; assay: Scratch (wound closure) assay, U118 cells; type: cell-based, human; conditions: U118, 7 50 nM, TGF-β1 50 ng/mL
Method: For the scratch assay, U118 cells were seeded in triplicate in 24-well plates at a concentration of 300,000 cells/well and allowed to adhere overnight. The cells were then scratched with a 10 μL plastic pipette tip, washed with PBS, and covered with serum-free DMEM containing TGF-β1 (50 ng/mL) and compound 7 (50 nM). Scratches were photographed at 0, 24, and 48 h using an EVOS XL Core microscope. Wound closure was determined by estimating the scratch area at each time point using ImageJ software and normalizing to the scratch area at 0 h.

TGF-β1-treated U87 cells [5] = assay: ECM adhesion assay (Matrigel), U87 cells; type: cell-based, human; conditions: TGF-β1 50 ng/mL, 7 50 nM, 48 h
Method: Second, to assess cell adhesion to the extracellular matrix (ECM), an ECM adhesion assay was performed according to previously published method ([Guan et al., 2015]; [Hu et al., 2019]). Briefly, U87 cells were pretreated with TGF-β1 (50 ng/mL) and compound 7 (50 nM) for 48 h, and then seeded in 96-well plates coated with Matrigel (BD Biosciences, Bedford, MA, USA) at a concentration of 30,000 cells for 1 h (n = 3). After that, the wells were washed to remove non-adherent cells, adherent cells were fixed with formaldehyde, stained with crystal violet dye, and analyzed as described above.

TGF-β1-treated U87 cells [6] = assay: Transwell migration (xCELLigence), U87 cells; type: cell-based, human; conditions: U87, 7 50 nM, TGF-β1 50 ng/mL, at 72 h
Method: To perform transwell migration, U87 cells were pretreated with TGF-β1 (50 ng/mL) and compound 7 (50 nM) for 48 h. Subsequently, 250,000 cells were placed in the upper chamber of the CIM-16 xCELLigence plate in serum-free DMEM supplemented with compound 7 and TGF-β1 (n = 4), while the lower chamber was filled with DMEM containing 10% FBS. Cell migration was monitored for 72 h using the xCELLigence RTCA DP system (ACEA Biosciences Inc., San Diego, CA, USA). The electrodes placed under the porous membrane detected changes in resistance, which were then converted into cell indices proportional to the number of migrating cells.

EPNT-5 cells = assay: Colony formation assay, EPNT-5 cells; type: cell-based, mouse; conditions: 10 days
Method: U87, U118 and EPNT-5 cells were seeded at a density of 200 cells/well in 96-well plates and treated with increasing concentrations of compound 7 (0–1,000 nM) dissolved in 10% FBS-containing DMEM (n = 5). On day 10, colonies were fixed with 4% formaldehyde and stained with crystal violet dye (0.1% w/v). Images were captured using the iBright 1,500 Imaging System (Invitrogen, USA) and the area of colonies with a minimum diameter of 100 µm was calculated using ImageJ. In the case of overlapping colonies, their total area was calculated. Finally, the area of the formed cell colonies was summed and normalized to the total colony area in the control.

SMILES: Cc1ccc(NC(=O)[C@@]2(C)CC[C@]3(C)CC[C@]4(C)[C@H](C(=O)C=C5[C@@]6(C)C=C(C#N)C(=O)C(C)(C)C6CC[C@]54C)[C@@H]3C2)cc1 (stereo partly shown) [compound 7, N-p-tolyl-2-cyano-3,12-dioxo-18βH-olean-9(11),1(2)-dien-30-amide]
- adhesion of TGF-β1-treated U87 cells to culture plastic (MTT readout) (TGF-β1-treated U87 cells [1]): one of the most pronounced pro-adhesive effects
- adhesion of TGF-β1-treated U87 cells to culture plastic (crystal violet) (TGF-β1-treated U87 cells [1]): restoring it to control levels
- reduction of nuclear-cytoplasmic ratio of SMAD2/3 (SMAD2/3): 52%
- percentage of cells in the right quadrants (apoptosis) (U118 cells [2]; U118, 7 450 nM): 82.5%
- percentage of cells in the right quadrants (apoptosis) (U118 cells [2]; U118, 7 1,000 nM): 95.6%
- percentage of cells in the right quadrants (apoptosis) (U118 cells [2]; U118, 7 2000 nM): 96.4%
- percentage of necrotic cells (U118 cells [2]; U118, at any concentration of 7 (450-2000 nM)): ≤ 3.5%
- IC50 (U87 cells; Homo sapiens, U-87 MG, MTT): 197 nM
- reduction of the cytotoxic effect by NAC (U87 cells; U87, NAC 2 mM, TMZ 125 μM, 7 100 nM): 56.2%
- IC50 (U118 cells [3]; Homo sapiens, MTT): 169 nM
- reduction of the cytotoxic effect by NAC (U118 cells [3]; U118, NAC 2 mM, TMZ 125 μM, 7 100 nM): 80.3%
- effect on TGF-β1-enhanced wound closure at 24 h ([4]; 24 h): completely reversed
- reduction of the effect of TGF-β1 on wound closure at 48 h ([4]; 48 h): 34%
- TGF-β1-induced adhesion of U87 cells to Matrigel (TGF-β1-treated U87 cells [5]): effectively suppressed this induction to almost control levels
- suppression of transwell migration compared to cells stimulated with TGF-β1 alone (TGF-β1-treated U87 cells [6]): 1.7 fold
- colony growth (EPNT-5 cells; EPNT-5, 7 450 nM): complete abrogation of colony growth
- colony growth (EPNT-5 cells; EPNT-5, 7 1,000 nM): complete abrogation of colony growth
- inhibition at 0.05 µM (EPNT-5 cells; Mus musculus, 240 h, EPNT-5, 7 50 nM): 56.1%
- inhibition at 0.1 µM (EPNT-5 cells; Mus musculus, 240 h, EPNT-5, 7 100 nM): 69%
